Where “and” joins values, the source holds several entries; their conditions need not be identical. Equal entries are not always repeated. Marks after values point to notes of the source that are not given here.
What was measured:
[1] = test system: allergic contact dermatitis response in mice; assay: Allergic contact dermatitis (TDI) model in mice, mouse ear swelling test; assay type: in vivo
Method: The anti-inflammatory and anti-allergic effects of compounds 1a and 1c were assessed in a mouse model of allergic contact dermatitis, a response driven primarily by T helper type 2 (Th2) cells. […] In this model, an allergic dermatitis response is obtained by sensitizing mice to TDI and subsequently challenging them with antigen by topical administration onto the ears. A quantitative assessment of anti-inflammatory and anti-allergic effects of topically or orally administered test compounds is possible by measuring the resulting ear swelling. The advantages of the allergic contact dermatitis model (Zöllner et al., Bioessays 26:693-6 (2004)) are reproducibility and reliability (>90% of BALB/c mice respond to sensitization), a short induction protocol, quantitative assessment by measuring ear thickness, atopic dermatitis-like skin lesions can be induced, and clinically relevant pharmaceuticals, such as corticosteroids, calcineurin-inhibitors and PDE4-inhibitors, are effective in this model.
Female BALB/c-mice were obtained from Charles River (Sulzfeld, Germany) at age 8 weeks. All animals were housed in groups of eight per cage at 22° C. with a 12 h light/dark-cycle, Water and a standard diet (Altromin, Lage/Lippe, Germany) were available ad libitum. All animals were acclimatized for one week before experimental procedures were commenced.
Experimental procedures for BALB/c mice housing, TDI sensitization and challenge, and measurement of ear thickness were performed as previously described (Baumer et al., J Pharm Pharmacol, 55:1107-1114 (2003)) with the following modifications. For active sensitization, 100 μL of 5% (w/v) TDI was administered to the shaved and stripped abdominal epidermis on day one, and for the next three consecutive days, 50 μL of 5% (My) TDI was applied. The allergic reaction was boosted 21 days later by application of 50 μL of 0.5% (w/v) TDI. For the examination of test compound effects, the left ears were used for the TDI challenge (20 μL of 0.5% in acetone) and ear thickness measured 3 h before and 24 h after challenge.
Group size was n=7 mice unless otherwise stated. Test compounds were freshly prepared before administration.
Administration time: to determine optimal time for administration treatment groups were treated orally by gavage with 100 mg/kg of compound 1a or 1c (suspended in 0.5% tylose, 10 mL/kg) 1, 4 or 16 h before topical TDI challenge. One group was treated with 100 mg/kg miltefosine orally, 16 h before challenge (based on available data for optimal administration time for miltefosine) and vehicle treated mice received tylose (10 mL/kg) orally, 4 h before challenge.
Dose-response: two groups of mice were treated orally with compound 1a at 25 mg/kg or 100 mg/kg suspended in 0.5% tylose, 4 h before topical TDI challenge. Vehicle treated mice received 0.5% tylose orally 4 h before challenge. As a positive control, dexamethasone was administered in saline solution at 1 mg/kg or 3 mg/kg, 2 h and 30 min before challenge and 1 h after challenge. The dose and dosing scheme for dexamethasone was based on previous experience showing a maximal effect in this model.
Compound 1a was administered to two groups of mice topically in 20 μl of a 2% or 6% solution in propyleneglycol. The suspension was heated to 60° C. and mixed using a thermomixer (Eppendorf) until it became clear. The solution was applied, 2 h before topical TDI challenge by administration of 10 μl onto each of the inner and outer surfaces of the left ears. A vehicle group (17=5) was treated with propyleneglycol. As a positive control, diflorasone, diacetate was administered at 0.01% (low dose) and 0.05% (high dose) in 20 μl acetone, 2 h before challenge. A basal control group was left untreated.
Mean and standard error of the mean (SEM) were calculated from individual ear edema values. […]

[2] = test system: local lymph node reaction; assay: Local lymph node weight and cell count after TDI challenge; assay type: in vivo, mice; conditions: topical 1a 2% or 6%, diflorasone 0.1% and 0.5%
Method: Directly after sacrifice, the ear draining lymph node (Ln. auricularis) was prepared and excised. Organ weight was determined by means of an analytical balance (Kern, Balingen, Germany). Single cell suspensions were prepared by means of a glass potter (VWR, Darmstadt, Germany) and cells were counted with a hemocytometer (Neubauer, VWR, Germany).
One of the most undesirable side-effects of corticosteroid administration is immunosuppression, which leads to the inability to effectively address parasitic infection, wound healing and tumor growth. In the current study, the local lymph node reaction after TDI challenge (lymph node weight and cell number) was determined to assess the response of immune organs.

[3] = administration time study, 100 mg/kg oral, 1 h before TDI challenge
[4] = administration time study, 100 mg/kg oral, 4 h before TDI challenge
[5] = administration time study, 100 mg/kg oral, 16 h before TDI challenge

Row | Structure (SMILES) | Inhibition of mouse ear swelling [1, 3] | Inhibition of mouse ear swelling [1, 4] | Inhibition of mouse ear swelling [1, 5] | local lymph node reaction (lymph node weight and cell number) [2] | inhibition relative to the highest dose of dexamethasone ([1]; dose-response study, oral, versus dexamethasone 3 mg/kg) [%] | Inhibition of mouse ear swelling ([1]; dose-response study, 25 mg/kg oral, 4 h before TDI challenge) | Inhibition of mouse ear swelling ([1]; dose-response study, 100 mg/kg oral, 4 h before TDI challenge) | toxicity at the doses used ([1]; oral 25 or 100 mg/kg) | reduction of ear swelling compared to vehicle control ([1]; topical solution at 2% or 6%) | Inhibition of mouse ear swelling ([1]; topical, 20 μl of 2% solution in propyleneglycol, 2 h before TDI challenge) | Inhibition of mouse ear swelling ([1]; topical, 20 μl of 6% solution in propyleneglycol, 2 h before TDI challenge)
1 | CCCCCCCCCCCCN(C)CC(O)CS(=O)(=O)O (centres unmarked) [Compound 1c, 2-hydroxy-3-(N-methyldodecylammonio)propanesulfonate] | 58.1** % | 68.5*** % | 42.7^§ % | – | – | – | – | – | – | – | –
2 | CCCCCCCCCCCCCCCCN(C)CC(O)CS(=O)(=O)O (centres unmarked) [Compound 1a, 2-hydroxy-3-(N-methylhexadecylammonio)propane-sulfonate] | 72.6*** % | 73.4*** % | 29.0% | did not have any impact | 52 | 45% and 44.9*** % | 45% and 44.4*** % | no toxicity | up to 68% | 67.9** % | 63.1** %

From patent US11453642B2, “Oxygenated amino- or ammonium-containing sulfonic acid, phosphonic acid and carboxylic acid derivatives and their medical use” (GRI BIO, INC., priority 2011, dated 2022)
